Measured values reported in patent US20140342379A1, “Means and Methods for Assessing Gonadal Toxicity” (BASF SE, priority 2011, published 2014).
Marks after values point to notes of the source that are not given here.

Test system: female rats
Test: 28-day repeated dose study, plasma metabolite profiling (GC-MS, LC-MS), female rats

Question: For `CC#C[C@]1(O)CC[C@H]2[C@@H]3CCC4=CC(=O)CCC4=C3[C@@H](c3ccc(N(C)C)cc3)C[C@@]21C` [Mifepristone, (11b,17b)-11-[4-(Dimethylamino)phenyl]-17-hydroxy-17-(1-propynyl)estra-4,9-dien-3-one], which “3-Methoxytyrosine, plasma, treatment ratio versus control” value (day 7) is on record?
Answer: 1.09

Question: And the “Arachidonic acid (C20:cis[5,8,11,14]4), plasma, treatment ratio versus control” value (day 7)?
Answer: 0.64*

Question: What about the “Campesterol, plasma, treatment ratio versus control” value (day 7) of the same compound?
Answer: 0.61*

Question: And the “Cholesterol, plasma, treatment ratio versus control” value (day 7)?
Answer: 0.65*

Question: And the “Choline plasmalogen No 03, plasma, treatment ratio versus control” value (day 7)?
Answer: 0.89*

Question: What about the “Citrate, plasma, treatment ratio versus control” value (day 7) of the same compound?
Answer: 0.83*

Question: And the “Docosahexaenoic acid (C22:cis[4,7,10,13,16,19]6), plasma, treatment ratio versus control” value (day 7)?
Answer: 0.73*

Question: What about the “Docosapentaenoic acid (C22:cis[7,10,13,16,19]5), plasma, treatment ratio versus control” value (day 7) of the same compound?
Answer: 0.67

Question: And the “Dodecanol, plasma, treatment ratio versus control” value (day 7)?
Answer: 0.59*

Question: And the “Elaidic acid (C18:trans[9]1), plasma, treatment ratio versus control” value (shortened to “Elaidic acid … treatment ratio versus control”) (day 7)?
Answer: 0.74*

Question: And the “Glycerol phosphate, lipid fraction, plasma, treatment ratio versus control” value (day 7)?
Answer: 0.52*

Question: And the “Lysophosphatidylcholine (C20:4), plasma, treatment ratio versus control” value (day 7)?
Answer: 0.93

Question: And the “Metanephrine, plasma, treatment ratio versus control” value (day 7)?
Answer: 0.9

Question: What about the “Phosphatidylcholine (C18:0,C18:1), plasma, treatment ratio versus control” value (day 7) of the same compound?
Answer: 0.85

Question: And the “Phosphatidylcholine (C18:0,C22:6), plasma, treatment ratio versus control” value (day 7)?
Answer: 0.87*

Question: And the “Phosphatidylcholine No 04, plasma, treatment ratio versus control” value (day 7)?
Answer: 0.67*

Question: What about the “Progesterone, plasma, treatment ratio versus control” value (day 7) of the same compound?
Answer: 0.67

Question: And the “alpha-Tocopherol, plasma, treatment ratio versus control” value (day 7)?
Answer: 0.75

Question: And the “gamma-Linolenic acid (C18:cis[6,9,12]3), plasma, treatment ratio versus control” value (day 7)?
Answer: 0.76

Question: And the “myo-Inositol, lipid fraction, plasma, treatment ratio versus control” value (day 7)?
Answer: 0.63*

Question: What about the “threo-Sphingosine, plasma, treatment ratio versus control” value (day 7) of the same compound?
Answer: 0.56*

Question: What about the “3-Methoxytyrosine, plasma, treatment ratio versus control” value (day 14) of the same compound?
Answer: 1

Question: What about the “Arachidonic acid (C20:cis[5,8,11,14]4), plasma, treatment ratio versus control” value (day 14) of the same compound?
Answer: 0.71*

Question: And the “Campesterol, plasma, treatment ratio versus control” value (day 14)?
Answer: 0.66*

Question: And the “Cholesterol, plasma, treatment ratio versus control” value (day 14)?
Answer: 0.72*

Question: And the “Choline plasmalogen No 03, plasma, treatment ratio versus control” value (day 14)?
Answer: 0.77*

Question: What about the “Citrate, plasma, treatment ratio versus control” value (day 14) of the same compound?
Answer: 0.94

Question: What about the “Docosahexaenoic acid (C22:cis[4,7,10,13,16,19]6), plasma, treatment ratio versus control” value (day 14) of the same compound?
Answer: 0.78*

Question: And the “Docosapentaenoic acid (C22:cis[7,10,13,16,19]5), plasma, treatment ratio versus control” value (day 14)?
Answer: 0.97

Question: And the “Dodecanol, plasma, treatment ratio versus control” value (day 14)?
Answer: 0.84*

Question: What about the “Elaidic acid … treatment ratio versus control” value (day 14) of the same compound?
Answer: 0.71*

Question: What about the “Glycerol phosphate, lipid fraction, plasma, treatment ratio versus control” value (day 14) of the same compound?
Answer: 0.76

Question: What about the “Lysophosphatidylcholine (C20:4), plasma, treatment ratio versus control” value (day 14) of the same compound?
Answer: 0.93

Question: What about the “Metanephrine, plasma, treatment ratio versus control” value (day 14) of the same compound?
Answer: 0.61

Question: What about the “Phosphatidylcholine (C18:0,C18:1), plasma, treatment ratio versus control” value (day 14) of the same compound?
Answer: 0.8*

Question: What about the “Phosphatidylcholine (C18:0,C22:6), plasma, treatment ratio versus control” value (day 14) of the same compound?
Answer: 0.9

Question: And the “Phosphatidylcholine No 04, plasma, treatment ratio versus control” value (day 14)?
Answer: 0.8*

Question: And the “Progesterone, plasma, treatment ratio versus control” value (day 14)?
Answer: 0.45*

Question: And the “alpha-Tocopherol, plasma, treatment ratio versus control” value (day 14)?
Answer: 0.76*

Question: What about the “gamma-Linolenic acid (C18:cis[6,9,12]3), plasma, treatment ratio versus control” value (day 14) of the same compound?
Answer: 0.69

Question: What about the “myo-Inositol, lipid fraction, plasma, treatment ratio versus control” value (day 14) of the same compound?
Answer: 0.77*

Question: What about the “threo-Sphingosine, plasma, treatment ratio versus control” value (day 14) of the same compound?
Answer: 0.79

Question: What about the “3-Methoxytyrosine, plasma, treatment ratio versus control” value (day 28) of the same compound?
Answer: 1.09

Question: What about the “Arachidonic acid (C20:cis[5,8,11,14]4), plasma, treatment ratio versus control” value (day 28) of the same compound?
Answer: 0.78

Question: What about the “Campesterol, plasma, treatment ratio versus control” value (day 28) of the same compound?
Answer: 0.83

Question: What about the “Cholesterol, plasma, treatment ratio versus control” value (day 28) of the same compound?
Answer: 0.76

Question: And the “Choline plasmalogen No 03, plasma, treatment ratio versus control” value (day 28)?
Answer: 0.74*

Question: And the “Citrate, plasma, treatment ratio versus control” value (day 28)?
Answer: 0.89*

Question: And the “Docosahexaenoic acid (C22:cis[4,7,10,13,16,19]6), plasma, treatment ratio versus control” value (day 28)?
Answer: 0.75*

Question: What about the “Docosapentaenoic acid (C22:cis[7,10,13,16,19]5), plasma, treatment ratio versus control” value (day 28) of the same compound?
Answer: 1

Question: And the “Dodecanol, plasma, treatment ratio versus control” value (day 28)?
Answer: 0.86

Question: And the “Elaidic acid … treatment ratio versus control” value (day 28)?
Answer: 0.79

Question: What about the “Glycerol phosphate, lipid fraction, plasma, treatment ratio versus control” value (day 28) of the same compound?
Answer: 0.79

Question: And the “Lysophosphatidylcholine (C20:4), plasma, treatment ratio versus control” value (day 28)?
Answer: 0.87*

Question: What about the “Metanephrine, plasma, treatment ratio versus control” value (day 28) of the same compound?
Answer: 0.81

Question: What about the “Phosphatidylcholine (C18:0,C18:1), plasma, treatment ratio versus control” value (day 28) of the same compound?
Answer: 0.7*

Question: And the “Phosphatidylcholine (C18:0,C22:6), plasma, treatment ratio versus control” value (day 28)?
Answer: 0.99

Question: What about the “Phosphatidylcholine No 04, plasma, treatment ratio versus control” value (day 28) of the same compound?
Answer: 0.69*

Question: And the “Progesterone, plasma, treatment ratio versus control” value (day 28)?
Answer: 0.38*

Question: What about the “alpha-Tocopherol, plasma, treatment ratio versus control” value (day 28) of the same compound?
Answer: 0.61*

Question: What about the “gamma-Linolenic acid (C18:cis[6,9,12]3), plasma, treatment ratio versus control” value (day 28) of the same compound?
Answer: 0.73*

Question: What about the “myo-Inositol, lipid fraction, plasma, treatment ratio versus control” value (day 28) of the same compound?
Answer: 0.86

Question: And the “threo-Sphingosine, plasma, treatment ratio versus control” value (day 28)?
Answer: 0.79
